# Publication PMC10385824, “Antiproliferative and Tubulin-Destabilising Effects of 3-(Prop-1-en-2-yl)azetidin-2-Ones and Related Compounds in MCF-7 and MDA-MB-231 Breast Cancer Cells” (Pharmaceuticals, 2023)
# Read-outs that look alike come from different tables or passages of the source.
# Experiments:
# [1] = test system: A549/ATCC; assay: NCI-60 SRB screen, non-small cell lung cancer; type: cell-based, human; conditions: Homo sapiens
# [2] = test system: HL-60(TB); assay: NCI-60 SRB screen, leukemia; type: cell-based, human; conditions: Homo sapiens
# [3] = test system: purified bovine brain tubulin; assay: Tubulin polymerization assay (light scattering, BK006 kit); type: biochemical; conditions: compound at 10 μM
# Outline: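 Compounds tested at 10 µM against vehicle (1% DMSO or EtOH) with bovine brain tubulin, 3 mg/mL, in pH 6.9 PIPES buffer containing 1 mM GTP and 10% glycerol, 37 °C. Light scattering at 340 nm tracked microtubule formation; average of two independent runs reported.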
# [4] = test system: UO-31; assay: NCI-60 SRB screen, renal cancer; type: cell-based, human; conditions: Homo sapiens
# [5] = test system: NCI-H23; assay: NCI-60 SRB screen, non-small cell lung cancer; type: cell-based, human; conditions: Homo sapiens
# [6] = test system: OVCAR-4; assay: NCI-60 SRB screen, ovarian cancer; type: cell-based, human; conditions: Homo sapiens
# [7] = test system: RXF 393; assay: NCI-60 SRB screen, renal cancer; type: cell-based, human; conditions: Homo sapiens
# [8] = test system: NCI-H332M; assay: NCI-60 SRB screen, non-small cell lung cancer; type: cell-based; conditions: Homo sapiens, 48 h
# [9] = test system: HCT-15; assay: NCI-60 SRB screen, colon cancer; type: cell-based, human; conditions: Homo sapiens
# [10] = test system: A498; assay: NCI-60 SRB screen, renal cancer; type: cell-based, human; conditions: Homo sapiens
# [11] = test system: SNB-75; assay: NCI-60 SRB screen, CNS cancer; type: cell-based, human; conditions: Homo sapiens
# [12] = test system: SR; assay: NCI-60 SRB screen, leukemia; type: cell-based, human; conditions: Homo sapiens, 48 h
# [13] = test system: COLO 205; assay: NCI-60 SRB screen, colon cancer; type: cell-based, human; conditions: Homo sapiens
# [14] = test system: BT-549; assay: NCI-60 SRB screen, breast cancer; type: cell-based, human; conditions: Homo sapiens
# [15] = test system: SK-MEL-2; assay: NCI-60 SRB screen, melanoma; type: cell-based, human; conditions: Homo sapiens
# [16] = test system: K-562; assay: NCI-60 SRB screen, leukemia; type: cell-based, human; conditions: Homo sapiens, K562, 48 h
# [17] = test system: HT29; assay: NCI-60 SRB screen, colon cancer; type: cell-based, human; conditions: Homo sapiens
# [18] = test system: MDA-MB-435; assay: NCI-60 SRB screen, melanoma; type: cell-based, human; conditions: Homo sapiens
# [19] = test system: T-47D; assay: NCI-60 SRB screen, breast cancer; type: cell-based, human; conditions: Homo sapiens, T47D, 48 h
# [20] = test system: UACC-62; assay: NCI-60 SRB screen, melanoma; type: cell-based, human; conditions: Homo sapiens
# [21] = test system: M14; assay: NCI-60 SRB screen, melanoma; type: cell-based, human; conditions: Homo sapiens
# [22] = test system: LOX IMVI; assay: NCI-60 SRB screen, melanoma; type: cell-based, human; conditions: Homo sapiens, 48 h
# [23] = test system: CCRF-CEM; assay: NCI-60 SRB screen, leukemia; type: cell-based; conditions: Homo sapiens, 48 h
# [24] = test system: SF539; assay: NCI-60 SRB screen, CNS cancer; type: cell-based, human; conditions: Homo sapiens
# [25] = test system: SNB-19; assay: NCI-60 SRB screen, CNS cancer; type: cell-based, human; conditions: Homo sapiens
# [26] = test system: IGROV1; assay: NCI-60 SRB screen, ovarian cancer; type: cell-based, human; conditions: Homo sapiens
# [27] = test system: HOP-92; assay: NCI-60 SRB screen, non-small cell lung cancer; type: cell-based, human; conditions: Homo sapiens
# [28] = test system: DU-145; assay: NCI-60 SRB screen, prostate cancer; type: cell-based, human; conditions: Homo sapiens
# [29] = test system: OVCAR-8; assay: NCI-60 SRB screen, ovarian cancer; type: cell-based, human; conditions: Homo sapiens
# [30] = HL-60(TB), five dose 0.01–100 µM, 48 h
# [31] = five dose 0.01–100 µM, read-out: GI50
smiles,measurement,setting,value
"C=CC=CC1C(=O)N(c2cc(OC)c(OC)c(OC)c2)C1c1ccc(OC)cc1 (stereo not shown) [11h, 3-(Buta-1,3-dienyl)-4-(4-methoxyphenyl)-1-(3,4,5-trimethoxyphenyl)azetidin-2-one]",GI50,"[1]; A549, 48 h",36.4 nM
same,GI50,[2]; [30],33.8 nM
same,GI50,"[2]; HL-60, NCI screen",< 34 nM
same,Vmax,"[3]; 37 °C, 340 nm",0.0035 mOD/min
same,Fold Reduction in Vmax,[3]; relative to vehicle,2.9
same,GI50,"[4]; UO-31, 48 h",216 nM
same,GI50,"[5]; NCI-H23, 48 h",32.1 nM
same,GI50,"[6]; OVCAR-4, 48 h",37.3 nM
same,GI50,"[7]; RXF 393, 48 h",30.1 nM
same,GI50,[8],62.6 nM
same,GI50,"[9]; HCT-15, 48 h",40.5 nM
same,GI50,"[10]; A498, 48 h",18.3 nM
same,GI50,"[11]; SNB-75, 48 h",30.7 nM
same,GI50,[12],35.6 nM
same,GI50,"[13]; COLO 205, 48 h",26.5 nM
same,GI50,"[14]; BT-549, 48 h",20.3 nM
same,GI50,"[15]; SK-MEL-2, 48 h",3250 nM
same,GI50,[16],41 nM
same,IC50,[17]; HT-29,33 nM
same,GI50,"[17]; HT-29, 48 h",33.2 nM
same,GI50,"[18]; MDA-MB-435, 48 h",19.1 nM
same,GI50,[19],56200 nM
same,GI50,"[20]; UACC-62, 48 h",26.7 nM
same,GI50,"[21]; M14, 48 h",19.4 nM
same,GI50,[22],32.7 nM
same,GI50,[23],37.8 nM
same,GI50,"[24]; SF-539, 48 h",33.2 nM
same,GI50,"[25]; SNB-19, 48 h",65.4 nM
same,GI50,"[26]; IGROV-1, 48 h",50.7 nM
same,GI50,"[27]; HOP-92, 48 h",24.4 nM
same,GI50,"[28]; DU-145, 48 h",27 nM
same,GI50,"[29]; OVCAR-8, 48 h",37.4 nM
"C=C(C)C1C(=O)N(c2cc(OC)c(OC)c(OC)c2)C1c1ccc(OC)c(OP(=O)(O)O)c1 (stereo not shown) [15a, 2-Methoxy-5-(4-oxo-3-(prop-1-en-2-yl)-1-(3,4,5-trimethoxyphenyl)azetidin-2-yl)-phenyl dihydrogen phosphate]",GI50,"[1]; A549/ATCC, five dose 0.01–100 µM, 48 h, read-out: GI50",59.6 nM
same,GI50,[2]; [30],27.9 nM
same,GI50,"[2]; HL-60, NCI screen",< 34 nM
same,GI50,"[4]; UO-31, five dose 0.01–100 µM, 48 h, read-out: GI50",182 nM
same,GI50,"[5]; NCI-H23, five dose 0.01–100 µM, 48 h, read-out: GI50",90.2 nM
same,GI50,"[6]; OVCAR-4, five dose 0.01–100 µM, 48 h, read-out: GI50",73.9 nM
same,GI50,"[7]; RXF 393, five dose 0.01–100 µM, 48 h, read-out: GI50",123 nM
same,GI50,"[8]; […], five dose 0.01–100 µM, read-out: GI50",82 nM
same,GI50,"[9]; HCT-15, five dose 0.01–100 µM, 48 h, read-out: GI50",70.7 nM
same,GI50,"[10]; A498, five dose 0.01–100 µM, 48 h, read-out: GI50",32.4 nM
same,GI50,"[11]; SNB-75, five dose 0.01–100 µM, 48 h, read-out: GI50",36.1 nM
same,GI50,[12]; [31],53.1 nM
same,GI50,"[13]; COLO 205, five dose 0.01–100 µM, 48 h, read-out: GI50",312 nM
same,GI50,"[14]; BT-549, five dose 0.01–100 µM, 48 h, read-out: GI50",59.6 nM
same,GI50,"[15]; SK-MEL-2, five dose 0.01–100 µM, 48 h, read-out: GI50",75 nM
same,GI50,[16]; read-out: GI50,45 nM
same,GI50,"[17]; HT-29, HT29, five dose 0.01–100 µM, 48 h, read-out: GI50",577 nM
same,GI50,"[18]; MDA-MB-435, five dose 0.01–100 µM, 48 h, read-out: GI50",25.9 nM
same,GI50,"[19]; T-47D, five dose 0.01–100 µM, read-out: GI50",> 100000 nM
same,GI50,"[20]; UACC-62, five dose 0.01–100 µM, 48 h, read-out: GI50",55.5 nM
same,GI50,"[21]; M14, five dose 0.01–100 µM, 48 h, read-out: GI50",123 nM
same,GI50,[22]; [31],42.6 nM
same,GI50,[23]; [31],55.7 nM
same,GI50,"[24]; SF-539, SF539, five dose 0.01–100 µM, 48 h, read-out: GI50",39.8 nM
same,GI50,"[25]; SNB-19, five dose 0.01–100 µM, 48 h, read-out: GI50",429 nM
same,GI50,"[26]; IGROV-1, IGROV1, five dose 0.01–100 µM, 48 h, read-out: GI50",62.8 nM
same,GI50,"[27]; HOP-92, five dose 0.01–100 µM, 48 h, read-out: GI50",315 nM
same,GI50,"[28]; DU-145, five dose 0.01–100 µM, 48 h, read-out: GI50",80.9 nM
same,GI50,"[29]; OVCAR-8, five dose 0.01–100 µM, 48 h, read-out: GI50",50.6 nM
